How the values were obtained:
Experiment in all cases: relative viability (nuclei count vs DMSO), 5 days (fraction); higher = more cells survive
201T = tested on: 201T
Procedure, shortened: (§1)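 Relative viability equals treated-well nuclei counts divided by vehicle-well nuclei counts. Counts came from 4× images of lung cancer cell lines grown in 1536-well plates for 5 days after pin-tool dosing on the day after seeding. Dosing used one drug alone or a fixed anchor-drug dose plus five library-drug doses (not always all listed) in √10 steps, and values are medians of duplicate plates.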

ChaGo-K-1 = tested on: ChaGo-K-1
Procedure, shortened: as §1

HCC-78 = tested on: HCC-78
Procedure, shortened: as §1

HCC-827 = tested on: HCC-827
Procedure, shortened: as §1

LCLC-103H = tested on: LCLC-103H
Procedure, shortened: as §1

LCLC-97TM1 = tested on: LCLC-97TM1
Procedure, shortened: as §1

LOU-NH91 = tested on: LOU-NH91
Procedure, shortened: as §1

NCI-H1437 = tested on: NCI-H1437
Procedure, shortened: as §1

NCI-H1755 = tested on: NCI-H1755
Procedure, shortened: as §1

NCI-H1792 = tested on: NCI-H1792
Procedure, shortened: as §1

NCI-H2085 = tested on: NCI-H2085
Procedure, shortened: as §1

NCI-H2126 = tested on: NCI-H2126
Procedure, shortened: as §1

NCI-H2170 = tested on: NCI-H2170
Procedure, shortened: as §1

NCI-H2342 = tested on: NCI-H2342
Procedure, shortened: as §1

NCI-H2405 = tested on: NCI-H2405
Procedure, shortened: as §1

NCI-H441 = tested on: NCI-H441
Procedure, shortened: as §1

NCI-H596 = tested on: NCI-H596
Procedure, shortened: as §1

NCI-H650 = tested on: NCI-H650
Procedure, shortened: as §1

NCI-H727 = tested on: NCI-H727
Procedure, shortened: as §1

RERF-LC-KJ = tested on: RERF-LC-KJ
Procedure, shortened: as §1

## COCC1(CO)C(=O)C2CCN1CC2 (stereo not given) [PRIMA-1MET] + NC(=O)Nc1cc(-c2cccc(F)c2)sc1C(=O)N[C@H]1CCCNC1 [AZD7762] (partner 0.2 µM)
201T; first compound 0.2 µM
  relative viability: 0.484
201T; first compound 0.6325 µM
  relative viability: 0.578
201T; first compound 2 µM
  relative viability: 0.626
201T; first compound 6.325 µM
  relative viability: 0.577
201T; first compound 20 µM
  relative viability: 0.563
ChaGo-K-1; first compound 0.2 µM
  relative viability: 0.765
ChaGo-K-1; first compound 0.6325 µM
  relative viability: 0.794
ChaGo-K-1; first compound 2 µM
  relative viability: 0.819
ChaGo-K-1; first compound 6.325 µM
  relative viability: 0.85
ChaGo-K-1; first compound 20 µM
  relative viability: 0.779
HCC-78; first compound 0.2 µM
  relative viability: 0.893
HCC-78; first compound 0.6325 µM
  relative viability: 0.62
HCC-78; first compound 2 µM
  relative viability: 0.555
HCC-78; first compound 6.325 µM
  relative viability: 0.69
HCC-78; first compound 20 µM
  relative viability: 0.174
HCC-827; first compound 0.2 µM
  relative viability: 0.206
HCC-827; first compound 0.6325 µM
  relative viability: 0.224
HCC-827; first compound 2 µM
  relative viability: 0.181
HCC-827; first compound 6.325 µM
  relative viability: 0.211
HCC-827; first compound 20 µM
  relative viability: 0.239
LCLC-103H; first compound 0.2 µM
  relative viability: 0.889
LCLC-103H; first compound 0.6325 µM
  relative viability: 0.732
LCLC-103H; first compound 2 µM
  relative viability: 0.673
LCLC-103H; first compound 6.325 µM
  relative viability: 0.768
LCLC-103H; first compound 20 µM
  relative viability: 0.756
LCLC-97TM1; first compound 0.2 µM
  relative viability: 0.268
LCLC-97TM1; first compound 0.6325 µM
  relative viability: 0.226
LCLC-97TM1; first compound 2 µM
  relative viability: 0.212
LCLC-97TM1; first compound 6.325 µM
  relative viability: 0.336
LCLC-97TM1; first compound 20 µM
  relative viability: 0.166
LOU-NH91; first compound 0.2 µM
  relative viability: 0.828
LOU-NH91; first compound 0.6325 µM
  relative viability: 0.74
LOU-NH91; first compound 2 µM
  relative viability: 0.658
LOU-NH91; first compound 6.325 µM
  relative viability: 0.71
LOU-NH91; first compound 20 µM
  relative viability: 0.386
NCI-H1437; first compound 0.2 µM
  relative viability: 1.16
NCI-H1437; first compound 0.6325 µM
  relative viability: 1.09
NCI-H1437; first compound 2 µM
  relative viability: 1.03
NCI-H1437; first compound 6.325 µM
  relative viability: 1.12
NCI-H1437; first compound 20 µM
  relative viability: 1.05
NCI-H1755; first compound 0.2 µM
  relative viability: 0.414
NCI-H1755; first compound 0.6325 µM
  relative viability: 0.4
NCI-H1755; first compound 2 µM
  relative viability: 0.392
NCI-H1755; first compound 6.325 µM
  relative viability: 0.557
NCI-H1755; first compound 20 µM
  relative viability: 0.446
NCI-H1792; first compound 0.2 µM
  relative viability: 0.569
NCI-H1792; first compound 6.325 µM
  relative viability: 0.907
NCI-H1792; first compound 20 µM
  relative viability: 0.429
NCI-H2085; first compound 0.2 µM
  relative viability: 1.09
NCI-H2085; first compound 0.6325 µM
  relative viability: 1.1
NCI-H2085; first compound 2 µM
  relative viability: 0.588
NCI-H2085; first compound 6.325 µM
  relative viability: 0.942
NCI-H2085; first compound 20 µM
  relative viability: 0.176
NCI-H2126; first compound 0.2 µM
  relative viability: 1.05
NCI-H2126; first compound 0.6325 µM
  relative viability: 1.02
NCI-H2126; first compound 2 µM
  relative viability: 0.975
NCI-H2126; first compound 6.325 µM
  relative viability: 1.02
NCI-H2126; first compound 20 µM
  relative viability: 0.978
NCI-H2170; first compound 0.2 µM
  relative viability: 1.06
NCI-H2170; first compound 0.6325 µM
  relative viability: 0.604
NCI-H2170; first compound 2 µM
  relative viability: 0.644
NCI-H2170; first compound 6.325 µM
  relative viability: 1
NCI-H2170; first compound 20 µM
  relative viability: 0.836
NCI-H2342; first compound 0.2 µM
  relative viability: 0.566
NCI-H2342; first compound 0.6325 µM
  relative viability: 0.371
NCI-H2342; first compound 6.325 µM
  relative viability: 0.531
NCI-H2342; first compound 20 µM
  relative viability: 0.41
NCI-H2405; first compound 0.2 µM
  relative viability: 0.753
NCI-H2405; first compound 0.6325 µM
  relative viability: 0.748
NCI-H2405; first compound 6.325 µM
  relative viability: 0.676
NCI-H2405; first compound 20 µM
  relative viability: 0.0739
NCI-H441; first compound 0.2 µM
  relative viability: 1.09
NCI-H441; first compound 0.6325 µM
  relative viability: 1.06
NCI-H441; first compound 2 µM
  relative viability: 0.833
NCI-H441; first compound 6.325 µM
  relative viability: 1.1
NCI-H441; first compound 20 µM
  relative viability: 0.731
NCI-H596; first compound 0.2 µM
  relative viability: 1.24
NCI-H596; first compound 0.6325 µM
  relative viability: 1
NCI-H596; first compound 2 µM
  relative viability: 0.884
NCI-H596; first compound 6.325 µM
  relative viability: 1.22
NCI-H596; first compound 20 µM
  relative viability: 0.232
NCI-H650; first compound 0.2 µM
  relative viability: 0.961
NCI-H650; first compound 0.6325 µM
  relative viability: 0.828
NCI-H650; first compound 2 µM
  relative viability: 0.983
NCI-H650; first compound 6.325 µM
  relative viability: 0.995
NCI-H650; first compound 20 µM
  relative viability: 0.148
NCI-H727; first compound 0.2 µM
  relative viability: 0.505
NCI-H727; first compound 0.6325 µM
  relative viability: 0.62
NCI-H727; first compound 6.325 µM
  relative viability: 0.421
NCI-H727; first compound 20 µM
  relative viability: 0.349
RERF-LC-KJ; first compound 0.2 µM
  relative viability: 1.11
RERF-LC-KJ; first compound 0.6325 µM
  relative viability: 0.875
RERF-LC-KJ; first compound 2 µM
  relative viability: 0.928
RERF-LC-KJ; first compound 6.325 µM
  relative viability: 1.04
RERF-LC-KJ; first compound 20 µM
  relative viability: 0.978

Source: the supplement of paper PMC10307832
